Measured values from patent US9890171B2, “Aldosterone synthase inhibitors” (Boehringer Ingelheim International GmbH, priority 2014, dated 2018).

target: aldosterone synthase (CYP11B2) (Macaca fascicularis, UniProt A0A2K5UPL9); assay: aldosterone synthase inhibition assay; type: biochemical, cynomolgus monkey; conditions: cynomolgus adrenal gland mitochondria, 2 μM corticosterone, aldosterone quantified by mass spectrometry
Method: The aldosterone synthase inhibition assay employs cynomolgus adrenal gland mitochondria as the source of aldosterone synthase (CYP11B2). Mitochondria are prepared from frozen cynomolgus monkey adrenal glands according to Method A described in by J. D. McGarry et al. (Biochem. J., 1983, 214, 21-28), with a final resuspension in the AT buffer described in R. Yamaguchi et al. (Cell Death and Differentiation, 2007, 14, 616-624), frozen as aliquots in liquid nitrogen and stored at −80° C. until use.
Assays are performed in 96-well format in a final volume of 60 μL/well, containing 100 mM potassium phosphate, pH 7.4, 1% (v/v) DMSO, and additionally, 2 μM of corticosterone and […] of mitochondrial protein. Reactions are started by the addition of NADPH to 1 mM and allowed to proceed for 60-90 minutes at 37° C. Reactions are terminated by the addition of […]. One hundred microliters are then transferred to a glass filter plate and centrifuged at 570×g for 5 minutes and the filtrate is collected. Reaction product aldosterone is quantified by mass spectrometry. To determine the assay blank value (0% activity), NADPH is omitted from some reactions.
Dose dependent inhibition is quantified by the inclusion of compound at various concentrations. Maximum activity (100%) is defined by reactions containing NADPH, but without compound. Activities at each concentration are expressed as a percentage of the maximum activity (y-axis) and plotted against concentration of compound (x-axis) and the concentration corresponding to 50% activity (IC50) determined using the XLFit curve-fitting program using a 4-parameter logistic model.

Chain of aldosterone synthase (CYP11B2) (A0A2K5UPL9 1-503): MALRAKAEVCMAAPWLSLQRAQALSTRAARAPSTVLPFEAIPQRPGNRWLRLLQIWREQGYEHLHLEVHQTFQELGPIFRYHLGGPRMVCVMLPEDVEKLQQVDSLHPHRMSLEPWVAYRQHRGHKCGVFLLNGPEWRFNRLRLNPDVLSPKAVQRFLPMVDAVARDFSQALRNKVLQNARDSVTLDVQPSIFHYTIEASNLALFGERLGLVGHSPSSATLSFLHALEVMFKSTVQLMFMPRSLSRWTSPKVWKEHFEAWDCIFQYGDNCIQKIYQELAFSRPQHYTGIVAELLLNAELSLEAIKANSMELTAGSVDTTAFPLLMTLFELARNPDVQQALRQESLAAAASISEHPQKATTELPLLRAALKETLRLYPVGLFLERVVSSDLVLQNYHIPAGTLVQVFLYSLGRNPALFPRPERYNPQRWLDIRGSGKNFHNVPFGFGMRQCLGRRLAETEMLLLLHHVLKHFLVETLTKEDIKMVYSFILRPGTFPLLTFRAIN

Compared with Cc1nn(C)c(C)c1-c1cncc2c1COCC2O (single isomer, unassigned) [Compound 39, 8-(1,3,5-Trimethyl-1H-pyrazol-4-yl)-3,4-dihydro-1H-pyrano[4,3-c]pyridin-4-ol], Cc1c(-c2cncc3c2COCC3O)cnn1C (single isomer, unassigned) [Compound 41, 8-(1,5-Dimethyl-1H-pyrazol-4-yl)-3,4-dihydro-1H-pyrano[4,3-c]pyridin-4-ol] is 2.3-fold higher in IC50: 437 nM for the first, 1000 nM for the second. The first is the more potent here.

First: OC1COCc2c(-c3cnc4[nH]ccc4c3)cncc21 (single isomer, unassigned) [Compound 40, 8-(1H-Pyrrolo[2,3-b]pyridin-5-yl)-3,4-dihydro-1H-pyrano[4,3-c]pyridin-4-ol]
Second: OC1COCc2c(-c3ccc4[nH]ccc4c3)cncc21 (single isomer, unassigned) [Compound 48, 8-(1H-Indol-5-yl)-3,4-dihydro-1H-pyrano[4,3-c]pyridin-4-ol]
The IC50 of the first is 11-fold higher: 186 nM for the first, 17.4 nM for the second. The second is the more potent here.

First: Cn1nc(C(F)(F)F)cc1-c1cncc2c1COCC2O (single isomer, unassigned) [Compound 42, 8-(2-Methyl-5-trifluoromethyl-2H-pyrazol-3-yl)-3,4-dihydro-1H-pyrano[4,3-c]pyridin-4-ol]
Second: Cn1nc(F)c2ccc(-c3cncc4c3COCC4O)cc21 (single isomer, unassigned) [Compound 55, 8-(3-Fluoro-1-methyl-1H-indazol-6-yl)-3,4-dihydro-1H-pyrano[4,3-c]pyridin-4-ol]
The IC50 of the first is 48-fold higher: 367 nM for the first, 7.6 nM for the second. The second is the more potent here.

First: OC1COCc2c(-c3ccc4c(c3)OCCCO4)cncc21 (single isomer, unassigned) [Compound 43, 8-(3,4-Dihydro-2H-benzo[b][1,4]dioxepin-7-yl)-3,4-dihydro-1H-pyrano[4,3-c]pyridin-4-ol]
Second: OC1COCc2c(-c3ccc4ocnc4c3)cncc21 (single isomer, unassigned) [Compound 49, 8-Benzooxazol-5-yl-3,4-dihydro-1H-pyrano[4,3-c]pyridin-4-ol]
The IC50 of the first is 2.5-fold lower: 22 nM for the first, 55.7 nM for the second.

Compared with Cn1ncc2ccc(-c3cncc4c3COCC4O)cc21 (single isomer, unassigned) [Compound 44, 8-(1-Methyl-1H-indazol-6-yl)-3,4-dihydro-1H-pyrano[4,3-c]pyridin-4-ol], Cn1ncc2ccc(-c3cncc4c3COCC4N)cc21 (single isomer, unassigned) [Compound 71, 8-(1-Methyl-1H-indazol-6-yl)-3,4-dihydro-1H-pyrano[4,3-c]pyridin-4-ylamine] is 2.6-fold higher in IC50: 8.5 nM for the first, 22.2 nM for the second.

Compared with OC1COCc2c(-c3ccc4cnccc4c3)cncc21 (single isomer, unassigned) [Compound 45, 8-Isoquinolin-6-yl-3,4-dihydro-1H-pyrano[4,3-c]pyridin-4-ol], OC1COCc2c(-c3ccc4[nH]ncc4c3)cncc21 (single isomer, unassigned) [Compound 47, 8-(1H-Indazol-5-yl)-3,4-dihydro-1H-pyrano[4,3-c]pyridin-4-ol] is 8.6-fold higher in IC50: 5.8 nM for the first, 50 nM for the second.

First: OC1COCc2c(-c3cnn(C4CC4)c3)cncc21 (single isomer, unassigned) [Compound 46, 8-(1-Cyclopropyl-1H-pyrazol-4-yl)-3,4-dihydro-1H-pyrano[4,3-c]pyridin-4-ol]
Second: Cn1cc2ccc(-c3cncc4c3COCC4O)cc2n1 (single isomer, unassigned) [Compound 50, 8-(2-Methyl-2H-indazol-6-yl)-3,4-dihydro-1H-pyrano[4,3-c]pyridin-4-ol]
The IC50 of the first is 4-fold lower: 302 nM for the first, 1200 nM for the second.

Going from CN1C(=O)Cc2cc(-c3cncc4c3COCC4O)ccc21 (single isomer, unassigned) [Compound 51, 5-(4-Hydroxy-3,4-dihydro-1H-pyrano[4,3-c]pyridin-8-yl)-1-methyl-1,3-dihydro-indol-2-one] to CCC(=O)NC1COCc2c(-c3ccc4c(c3)CC(=O)N4C)cncc21 (single isomer, unassigned) [Compound 58, N-[8-(1-Methyl-2-oxo-2,3-dihydro-1H-indol-5-yl)-3,4-dihydro-1H-pyrano[4,3-c]pyridin-4-yl]-propionamide], the IC50 rises from 24.2 nM to 130 nM (5.4-fold). The first is the more potent here.

Compared with O=C1Cc2cc(-c3cncc4c3COCC4O)ccc2N1 (single isomer, unassigned) [Compound 52, 5-(4-Hydroxy-3,4-dihydro-1H-pyrano[4,3-c]pyridin-8-yl)-1,3-dihydro-indol-2-one], CCC(=O)NC1COCc2c(-c3ccc4c(c3)CC(=O)N4)cncc21 (single isomer, unassigned) [Compound 59, N-[8-(2-Oxo-2,3-dihydro-1H-indol-5-yl)-3,4-dihydro-1H-pyrano[4,3-c]pyridin-4-yl]-propionamide] is 2.8-fold higher in IC50: 64.1 nM for the first, 179 nM for the second. The first is the more potent here.

First: OC1COCc2c(-c3ccc4ocnc4c3)cncc21 (single isomer, unassigned) [Compound 53, 8-Benzooxazol-5-yl-3,4-dihydro-1H-pyrano[4,3-c]pyridin-4-ol]
Second: CCC(=O)NC1COCc2c(-c3ccc4ocnc4c3)cncc21 (single isomer, unassigned) [Compound 56, N-(8-Benzooxazol-5-yl-3,4-dihydro-1H-pyrano[4,3-c]pyridin-4-yl)-propionamide]
The IC50 of the first is 9.4-fold higher: 808 nM for the first, 85.8 nM for the second. The second is the more potent here.

Compared with CN1C(=O)Cc2cc(-c3cncc4c3COCC4O)ccc21 (single isomer, unassigned) [Compound 54, 5-(4-Hydroxy-3,4-dihydro-1H-pyrano[4,3-c]pyridin-8-yl)-1-methyl-1,3-dihydro-indol-2-one], CCS(=O)(=O)NC1COCc2c(-c3ccc4c(c3)CC(=O)N4C)cncc21 (single isomer, unassigned) [Compound 63, Ethanesulfonic acid [8-(1-methyl-2-oxo-2,3-dihydro-1H-indol-5-yl)-3,4-dihydro-1H-pyrano[4,3-c]pyridin-4-yl]-amide] is 1.7-fold lower in IC50: 149 nM for the first, 85.2 nM for the second.

Compared with CCC(=O)NC1COCc2c(-c3ccc4ncn(C)c4c3)cncc21 (single isomer, unassigned) [Compound 57, N-[8-(3-Methyl-3H-benzoimidazol-5-yl)-3,4-dihydro-1H-pyrano[4,3-c]pyridin-4-yl]-propionamide], CCC(=O)NC1COCc2c(-c3ccc4nnn(C)c4c3)cncc21 (single isomer, unassigned) [Compound 60, N-[8-(3-Methyl-3H-benzotriazol-5-yl)-3,4-dihydro-1H-pyrano[4,3-c]pyridin-4-yl]-propionamide] is 2.9-fold lower in IC50: 219 nM for the first, 75.5 nM for the second. The second is the more potent here.

Going from CCC(=O)NC1COCc2c(-c3ccc4[nH]nc(C)c4c3)cncc21 (single isomer, unassigned) [Compound 61, N-[8-(3-Methyl-1H-indazol-5-yl)-3,4-dihydro-1H-pyrano[4,3-c]pyridin-4-yl]-propionamide] to CCC(=O)NC1COCc2c(-c3ccc4c(C)n[nH]c4c3)cncc21 (single isomer, unassigned) [Compound 62, N-[8-(3-Methyl-1H-indazol-6-yl)-3,4-dihydro-1H-pyrano[4,3-c]pyridin-4-yl]-propionamide], the IC50 rises from 36.2 nM to 139 nM (3.8-fold). The first is the more potent here.

Compared with CCS(=O)(=O)NC1COCc2c(-c3ccc4c(c3)CC(=O)N4)cncc21 (single isomer, unassigned) [Compound 64, Ethanesulfonic acid [8-(2-oxo-2,3-dihydro-1H-indol-5-yl)-3,4-dihydro-1H-pyrano[4,3-c]pyridin-4-yl]-amide], CCS(=O)(=O)NC1COCc2c(-c3ccc4c(C)n[nH]c4c3)cncc21 (single isomer, unassigned) [Compound 66, Ethanesulfonic acid [8-(3-methyl-1H-indazol-6-yl)-3,4-dihydro-1H-pyrano[4,3-c]pyridin-4-yl]-amide] is 1.6-fold higher in IC50: 611 nM for the first, 1000 nM for the second.

Going from CCS(=O)(=O)NC1COCc2c(-c3ccc4nnn(C)c4c3)cncc21 (single isomer, unassigned) [Compound 65, Ethanesulfonic acid [8-(3-methyl-3H-benzotriazol-5-yl)-3,4-dihydro-1H-pyrano[4,3-c]pyridin-4-yl]-amide] to CCS(=O)(=O)NC1COCc2c(-c3ccc4ncn(C)c4c3)cncc21 (single isomer, unassigned) [Compound 67, Ethanesulfonic acid [8-(3-methyl-3H-benzoimidazol-5-yl)-3,4-dihydro-1H-pyrano[4,3-c]pyridin-4-yl]-amide], the IC50 rises from 36.1 nM to 110 nM (3-fold). The first is the more potent here.

First: CCS(=O)(=O)NC1COCc2c(-c3ccc4c(F)nn(C)c4c3)cncc21 (single isomer, unassigned) [Compound 68, Ethanesulfonic acid [8-(3-fluoro-1-methyl-1H-indazol-6-yl)-3,4-dihydro-1H-pyrano[4,3-c]pyridin-4-yl]-amide]
Second: CCS(=O)(=O)NC1COCc2c(-c3ccc4[nH]nc(C)c4c3)cncc21 (single isomer, unassigned) [Compound 69, Ethanesulfonic acid [8-(3-methyl-1H-indazol-5-yl)-3,4-dihydro-1H-pyrano[4,3-c]pyridin-4-yl]-amide]
The IC50 of the first is 5.3-fold lower: 15.9 nM for the first, 84.6 nM for the second. The first is the more potent here.

For Cc1cc2cnn(C)c2cc1-c1cncc2c1COCC2N (single isomer, unassigned) [Compound 70, 8-(1,5-Dimethyl-1H-indazol-6-yl)-3,4-dihydro-1H-pyrano[4,3-c]pyridin-4-ylamine], the IC50 was 166 nM.
